Several values for one entry are separate records, joined by “and”; a condition that tells them apart may be missing. Identical values can stand only once. Like-named read-outs stand apart in the source and are kept apart here.
What was measured:
[1] = test system: middle cerebral artery occlusion/reperfusion model; experiment: Cerebral infarction reducing effect: middle cerebral artery occlusion/reperfusion model (Example 7); format: in vivo, male Wistar rats
Experimental: Male Wistar rats aged 8 weeks (Charles River Japan, Inc.) were used in the study. […] They were fed a pellet diet (MF, Oriental Yeast Co., Ltd.) and tap water ad libitum.
Exactly 0.2 g of BHBNa was weighed and dissolved in distilled water for injection to make up a final volume of 10 ml. To 9 ml of this solution, physiological saline was added to make up 30 ml.
Under ether anesthesia, a midline incision was made in the neck. The incision reached the right carotid bifurcation while avoiding injury to the vagus nerve. Around the bifurcation, the common carotid artery and the external carotid artery were separated from surrounding connective tissue and adipose tissue. […] The external carotid artery was then double ligated with 5-0 silk and cut In addition, the right internal carotid artery was dissected out from the surrounding connective tissue to expose the pterygopalatine artery. The external carotid artery was incised, and an embolizing thread was inserted via this incision to a distance of 21 mm into the internal carotid artery. The tip of the thread went beyond the origin of the middle cerebral artery and entered the anterior cerebral artery by about 1-2 mm, so that the middle cerebral artery was occluded by the central portion of the thread.
In sham-operated rats, the skin incision was closed without inserting any embolizing thread into the internal carotid artery. The rats were then maintained until the scheduled time of sacrifice.
After the middle cerebral artery was occluded with an embolizing thread for 2 hours, the thread was removed under ether anesthesia to allow reperfusion.
Immediately after insertion of the embolizing thread, the rats were given a continuous infusion of physiological saline or 0.6% BHBNa solution via a cannula inserted into a femoral vein on the previous day. Administration was performed at a rate of 5 ml/kg/hr using an infusion pump and was continued until the scheduled time of sacrifice (24 hours after reperfusion).
Each rat was sacrificed at 24 hours after reperfusion. The cerebrum was isolated, and cut into 2 mm coronal sections by using a Brain Slicer (MUROMACHI KIKAI Co., Ltd.) from a point 7 mm behind the edge of the forebrain to the interauricular line (telencephalon). The brain sections were stained to detect normal mitochondria by total immersion for 30 min in a 2% solution of 2,3,5-triphenyltetrazolium chloride (TTC) in physiological saline. […]
Photographs of the TTC-stained coronal sections of the cerebrum were scanned by using an film scanner and the data were processed with image analyzing software (NIH Image). The percent infarcted area (mitochondria death) on each cerebral section was calculated from the total area of the unstained regions relative to the entire area of the section.

KCN-induced death = format: in vivo, male Wistar rats; conditions: for survival time after KCN: KCN 3 mg/kg, mean ± S.E.
[2] = cited from earlier work
[3] = test system: cerebral edema induced by ligation and severing of the bilateral common carotid arteries; experiment: Cerebral edema suppressing effect: cerebral water content after ligation and severing of the bilateral common carotid arteries (Examples 1-3); format: in vivo, male Wistar rats
Text: (§1) Rats were operated on under anesthesia which was introduced with ether and maintained by inhalation of a mixture of isoflurane/nitrous oxide/oxygen (0.5:70:30). A midline incision was made in the neck and the connective tissue was carefully dissected to avoid injury to the vagus nerve while exposing the bilateral common carotid arteries.
For test drug administration, the right external jugular vein was cannulated and the other end of the cannula was led out through the back of the animal. Then the common carotid artery was ligated at two points (head side and heart side) and severed between the two ligatures. […]
In sham-operated rats, the bilateral common carotid arteries were exposed in the same way and the skin incision was closed without arterial ligation and severing.
On completion of administration, each rat was decapitated, and the whole brain was isolated immediately. After removal of the cerebellum and the medulla oblongata, the wet weight of the cerebrum was measured. […] The cerebral water content was calculated by using the following formula:
Cerebral water content (%)=(wet weight of the cerebrum-dry weight of the cerebrum)/wet weight of the cerebrum×100. […]

[4] = test system: cerebral ischemia model (BLCL); experiment: Cerebral ATP and lactate levels in rats with BLCL (Example 6); format: in vivo, male Wistar rats
Text: as §1
For test drug administration, the right external jugular vein was cannulated and the other end of the cannula was led out through the back of the animal. Then the common carotid artery was ligated at two points (head side and heart side) and severed between the two ligatures.
The level of significance was set at p<0.05.

acute cerebral injury = conditions: intravenous, after acute cerebral injury; cited from earlier work
normal rats without BLCL = experiment: Cerebral ATP and lactate levels in normal rats without BLCL (Example 6); format: in vivo, male Wistar rats; conditions: continuous infusion for 3 hours
Experimental: Male Wistar rats (Japan S.L.C., Ltd.) were used in the study. The animals were maintained at 23±3° C. and 55±15% humidity with lights on for 12 hours daily (from 7:00 to 19:00). They were fed a pellet diet (MF, Oriental Yeast Co., Ltd.) and tap water ad libitum. Their weight ranged from 161.7 to 249.0 g at the time of the study.
Exactly 0.2 g of BHBNa was weighed and dissolved in distilled water for injection to make a final volume of 10 ml. To 9 ml of this solution, physiological saline was added to make up 30 ml. The 0.6% BHBNa solution thus obtained was sterilized by filtration through DISMIC-25CS ([…], ADVANTEC Toyo) prior to use.
After 3 hours of cerebral ischemia, the head of each rat was irradiated with microwaves (5 kW) for 2 seconds using a microwave applicator (TMW6402C, Toshiba) to terminate all enzyme reactions and the production/degradation of metabolites in the brain tissue. […] The weight of the cerebrum was calculated from the difference of the weight of the test tube measured as above.
The cerebral ATP level was determined by an enzymatic method (the luciferin-luciferase method) by using Lumat LB9507 (EG&G BERTHOLD). The data obtained were expressed as μmoles/wet weight g.
The cerebral lactate level was determined by an enzymatic method (lactate dehydrogenase method) by using Determiner LA (Kyowa Medics). The data obtained were expressed as μmoles/wet weight g. […]

[5] = Stability of test drug and prepared solutions; format: physicochemical
Wistar or SD rats [6] = experiment: Single dose toxicity study (Example 8); format: in vivo, Wistar or SD rats of both sexes; conditions: 2000 mg/kg, oral or intravenous
Experimental: (1) BHBNa was orally or intravenously administered to Wistar or SD rats of both sexes at a single dose of 2000 mg/kg.

[7] = test system: bilateral common carotid artery ligation (BLCL); experiment: Cerebral metabolic activation: cerebral water and electrolyte content in rats with bilateral common carotid artery ligation (Example 5); format: in vivo, male Wistar rats; conditions: 25 mg/kg/hr i.v. infusion for 5 hours, n = 9, mean ± S.E.
Experimental: Male Wistar rats purchased from Japan S.L.C., Ltd. were used after a 1-week acclimatization period. The animals were maintained at 23±2° C. and 55±10% humidity with lights on for 12 hours daily (from 7:00 to 19:00). They were fed a pellet diet (MF, Oriental Yeast Co., Ltd.) and tap water ad libitum. Their weight averaged 172.1±6.7 g at the time of the study.
Sodium β-hydroxybutyrate (BHBNa).
The dose of BHBNa tested was 25 mg/kg/hr. The test group was treated with a 20 mM BHBNa solution, while the control group received physiological saline. In both groups, administration was performed at a rate of 10 ml/kg/hr for 5 hours.
Rats were operated on under anesthesia which was introduced with ether and maintained by inhalation of a mixture of isoflurane/nitrous oxide/oxygen (0.5:70:30). A midline incision was made in the neck. The connective tissue was dissected carefully to avoid injury to the vagus nerves while exposing the bilateral common carotid arteries. The right external jugular vein was cannulated and the other end of the cannula was led out through the back. Each of the exposed common carotid arteries was ligated at two points (head side and heart side) and severed between the two ligatures. The skin incision was sutured and each rat was immediately given the test drug or physiological saline by continuous intravenous infusion using an infusion pump at a rate of 10 ml/kg/hr for 5 hours. In sham-operated rats, the bilateral common carotid arteries were exposed in the same way and the skin incision was closed without arterial ligation and severing. After completion of administration, each animal was sacrificed by decapitation and the whole brain was immediately isolated. After removal of the cerebellum and the medulla oblongata, the wet weight of the cerebrum was measured. The cerebrum was then dried at 105° C. for 24 hours and the dry weight was measured. The cerebral water content was calculated by using the following formula: […]
Data are expressed as the mean±standard error (S.E.). […]

Wistar or SD rats [8] = experiment: 2-week repeated dose toxicity study (Example 8); format: in vivo, male Wistar or SD rats; conditions: 500 mg/kg-2000 mg/kg, oral or intravenous, 2 weeks
Text: (2) BHBNa was repeatedly administered orally or intravenously to male Wistar or SD rats for 2 weeks.

For `CC(O)CC(=O)O` (stereo not drawn) [β-hydroxybutyric acid], the “extent of cerebral infarction (summary)” value ([1]; administration during ligation of the middle cerebral artery and subsequent reperfusion) is given as “markedly reduced”, the “survival time after lethal KCN (summary)” value (KCN-induced death; intravenous pretreatment) is given as “prolonged the survival time” and the water solubility [2] is given as “water-soluble”. For the same compound, the “increase in cerebral water content induced by BLCL for 6 hours” value ([3]; at the doses tested in Example 4 (50 and 100 mg/kg/hr)) was “significantly suppressed”, the “development of cerebral edema (summary)” value ([3]; simultaneous intravenous administration, ligation of bilateral common carotid arteries) was “prevented the development of cerebral edema” and the “cerebral ATP levels (summary)” value ([4]; ligation of bilateral common carotid arteries) was “high cerebral ATP levels were maintained”. The “ketone level in the cerebrospinal fluid” value (acute cerebral injury) was “increased” and the “lactate level in the cerebrospinal fluid” value (acute cerebral injury) was “decreased”.

With `CC(O)CC(=O)[O-].[Na+]` (stereo not drawn) the “localization of infarct foci” value ([1]; 30 mg/kg/hr continuous infusion) was “Most infarct foci were localized in the central ischemic zone and few extended to the surrounding regions”, the Infarction % ([1]; 30 mg/kg/hr i.v. infusion from arterial occlusion (2 hours) to 24 hours after reperfusion, n = 4, saline 35.18±2.69%, listed as BHBNa) was 18.99% and 18.99 ±1.59% and the “survival time after KCN” value (KCN-induced death; 50 mg/kg/hr for 1 hour i.v., saline 44.6±1.6 sec, FIG. 2) was 58.8 ± 2.4 s. The “survival time after KCN” value (KCN-induced death; 100 mg/kg/hr for 1 hour i.v. (duration comparison), FIG. 3) was 58.2 ± 2.2 s, the “survival time after KCN” value (KCN-induced death; 100 mg/kg/hr for 1 hour i.v., saline 44.6±1.6 sec, FIG. 2) was 58.8 ± 1.2 s and the “survival time after KCN” value (KCN-induced death; 100 mg/kg/hr for 3 hours i.v., FIG. 3) was 61.0 ± 1.6 s. For the same compound, the “cerebral ATP level in normal rats” value (normal rats without BLCL) was “no significant effect”, the “cerebral lactate level in normal rats” value (normal rats without BLCL) was “no significant effect” and the “stability of prepared solution” value [5] was “at least 1 week”. For the same compound, the stability on storage [5] was 5 months, the “changes in quality of the lot used in the study” value ([5]; tested after completion of the study) was “no changes in quality” and the single dose toxicity (Wistar or SD rats [6]) was “survived without any abnormal findings”. For the same compound, the “relation of cerebral water content to dose” value ([3]; FIG. 1, i.v. infusion for 5 hours) was “related to the dose”, the “statistical significance of lower cerebral water content vs. physiological saline group” value ([3]; by dose, i.v. infusion 10 ml/kg/hr for 5 hours) was “statistically significant (p<0.01) at doses of 5 mM or more” and the “cerebral water content vs. physiological saline group” value ([3]; sodium β-hydroxybutyrate 3.1-400 mg/kg/hr (2.5-320 mM, 10 ml/kg/hr) i.v. infusion for 5 hours, FIG. 1) was “lower than in the physiological saline group”. The “cerebral ATP level” value ([4]; 3 hours of BLCL, BHBNa 30 mg/kg/hr, mean±S.E., saline 0.52±0.10, sham 1.85±0.13) was 1.56±0.10 μmoles/wet weight g, the cerebral lactate level ([4]; 3 hours of BLCL, BHBNa 30 mg/kg/hr, mean±S.E., saline 11.39±0.85, sham 0.61±0.12) was 1.36±0.17 μmoles/wet weight g and the Cerebral water content ([7]; P < 0.01 vs. physiological saline (81.96 ± 0.21)) was 79.50 ± 0.09%. For the same compound, the “Na^+ content” value ([7]; cerebral, P < 0.01 vs. physiological saline (304.39 ± 12.83)) was 269.74 ± 15.98 mEq/kg dry weight, the “K^+ content” value ([7]; cerebral, physiological saline 405.99 ± 20.96, not significantly different) was 420.42 ± 5.76 mEq/kg dry weight and the repeated dose toxicity (Wistar or SD rats [8]) was “survived without any abnormal findings”.

With `COC(=O)CC(C)O` (stereo not drawn) [methyl β-hydroxybutyrate] the “cerebral water content vs. physiological saline-treated group” value ([3]; parenteral solution with methyl β-hydroxybutyrate 2.42 g/l, NaCl, KCl, glucose) was “lower than in the physiological saline-treated group”.

Reference: US6232345A, “Cerebral function improving agents” (Shimizu Pharmaceutical Co., Ltd., priority 1995, dated 2001)
